The text below walks through data of US20160090555A1, “CLEANING AND/OR TREATMENT COMPOSITIONS COMPRISING MALODOR REDUCTION COMPOSITIONS” (The Procter & Gamble Company, priority 2014, published 2016).

The nature of test [1]: Blocker Index (BI), expert graders, isovaleric acid malodorous swatch. Details: key: Blocker Index, 0–3 scale anchored by reference swatches (0 = clean swatch). From the text: Blocker materials suitable for use in cleaning and/or treatment compositions of the present invention are chosen for their ability to decrease malodor, while not interfering with perception of a fragrance. Material selection is done by assigning two indices to a test sample material from two reference scales in order to rank odor strengths. The two reference scales are the Fragrance Fidelity Index (FFI) scale and the Blocker Index (BI) scale. The FFI ranks the ability of the test sample material to impart a perceivable odor which could cause interference when combined with another fragrance and the BI ranks the ability of the test sample material to reduce malodor perception. The two methods for assigning the indices to a test sample on the FFI and the BI reference scales are given below.
The first step in the method for assigning a BI to a test sample material on the BI reference scale is to create the BI reference swatches. […] Fabric swatches for this test are white knit polycotton (4 inch×4 inch) swatches from EMC ordered as PC 50/50. The supplier is instructed to strip the swatches first, stripping involves washing twice with a fragrance-free detergent and rinsing three times.
The BI scale contains one clean swatch with no malodor applied. […] These solutions are pipetted to the middle of the swatches. […] After drying for 30 minutes in a vented hood, the swatches are wrapped in aluminum foil to prevent odor contamination to the treated swatch. A clean untreated swatch is also included as the lowest anchor point of reference for malodor strength on the BI scale. The BI reference scale swatches should be used within 0.5 to 12 hours and discarded after 12 hours. The swatches are used as scale anchor points when graders evaluate a test sample(s) and are assigned a Blocker Index (BI) as show in Table 12.
The perfumer/expert grader is asked to rank order swatches according to a scale between 0 and 3.
The reference swatches represent the 0, 1, 2, and 3 BIs on the BI reference scale, Table 12. The expert grader should familiarizes him/herself with the strength of the odor on the BI reference swatches by sniffing each one starting at 0 (the lowest odor strength) and ending at 3 (the highest odor strength). This should be done prior to evaluating the swatch treated with the test material.
To evaluate the BI, the test material is applied to a malodorous swatch to determine how well the test material blocks the malodor. […] After drying the malodorous swatch a known concentration of test material solution, between 1 ppm and 100 ppm is pipetted onto the malodorous swatch. […] It is sometimes necessary to evaluate several levels of the test material between about 1 and about 100 ppm to determine the BI.
At least two perfumers/expert graders are used to assign the BI to the test sample. […] The test sample swatch is assigned a BI at or between numbers on the BI in table.

Test [2] can be described thus: Fragrance Fidelity Index (FFI), expert graders, treated fabric swatch against ethyl vanillin reference scale. From the text:
Blocker materials suitable for use in cleaning and/or treatment compositions of the present invention are chosen for their ability to decrease malodor, while not interfering with perception of a fragrance. Material selection is done by assigning two indices to a test sample material from two reference scales in order to rank odor strengths. The two reference scales are the Fragrance Fidelity Index (FFI) scale and the Blocker Index (BI) scale. The FFI ranks the ability of the test sample material to impart a perceivable odor which could cause interference when combined with another fragrance and the BI ranks the ability of the test sample material to reduce malodor perception. The two methods for assigning the indices to a test sample on the FFI and the BI reference scales are given below. The first step in the method for assigning an FFI to the test samples on the FFI reference scale is to create the FFI reference swatches. […] Fabric swatches for this test are white knit polycotton (4 inch×4 inch) swatches from EMC ordered as PC 50/50. The supplier is instructed to strip the swatches first, stripping involves washing twice with a fragrance-free detergent and rinsing three times. […] This will create a sensory scale of three swatches with three different odor levels based on the concentration of the solution pipetted onto the swatch. […] A clean untreated swatch is also included as the lowest anchor point of reference for odor strength on the FFI scale. […] The swatches are used as scale anchor points when graders evaluate a test sample(s) and are assigned a Fragrance Fidelity Index (FFI) as show in Table 7. […] This should be done prior to evaluating the test sample material treated swatch. […] At least two perfumers/expert graders are used to assign an FFI grade to a test sample.

Setting [3] is: test material at 10 ppm on isovaleric acid malodorous swatch.
Setting [4] is: test material at 50 ppm on isovaleric acid malodorous swatch.

As to `CC1(C)CCc2ccc(CCC=O)cc21`, the BI in test [1] (setting [3]) was 1.5; in test [1] (setting [4]), 2.7.
In the same order, the values of `CC1CCC2(C(C)C)CC(C)OC2C1` (centres unmarked) are 2.0 and 2.2.
With `O=C1CCC2CCCCC2O1` (centres unmarked) [3,4,4a,5,6,7,8,8a-octahydrochromen-2-one], the FFI in test [2] (Conc 10 ppm) and in test [2] (Conc 50 ppm) was 0 each time. Also, the BI in test [1] (Conc 10 ppm) and in test [1] (Conc 50 ppm) was 2.0 in each case.
On to `CC(C)(C)C1CCCCC1` [4-tert-butyl cyclohexane], for which the figures for the FFI in test [2] (Conc 10 ppm) and in test [2] (Conc 50 ppm) were 0 and 0.3, respectively. Moreover, the BI in test [1] (Conc 10 ppm) and in test [1] (Conc 50 ppm) was 2.0 in each case.
Take `CCC(=O)OC1CC2C3C=CCC3C1C2(C)C` (centres unmarked) [8,8-dimethyl-3a,4,5,6,7,7a-hexahydro-1H-4,7-methanoinden-6-yl propionate]: the BI came to 1.5 in test [1] (setting [3]) and 2.2 in test [1] (setting [4]).
With `CCCCCCCCCCCCCCCC(=O)OC` [Material 109], the BI in test [1] (Conc 10 ppm) is given as 2.0.
`CCCCCCCCCCCCO` [Material 174]: the FFI in test [2] (Conc 50 ppm) came to 0.5. For the same compound, in test [1] (Conc 50 ppm), the BI turned out to be 2.3.
Regarding `CC(=O)OCCCCCCC(C)C` [Material 204], the FFI in test [2] (Conc 10 ppm) and in test [2] (Conc 50 ppm) was 0 throughout. In addition, the results for the BI in test [1] (Conc 10 ppm) and in test [1] (Conc 50 ppm) were 2.0 and 2.7, respectively.
Consider `CC1(C)CCc2ccc(CCC=O)cc21` [Material 261], for which the FFI in test [2] (Conc 10 ppm) is 0; in test [2] (Conc 50 ppm), 1.3. In addition, the BI in test [1] (Conc 10 ppm) turned out to be 1.8; in test [1] (Conc 50 ppm) it was 1.3.
`CC(=O)OC1CC2CC1C1CC=CC21` (centres unmarked) [Material 281]: the figures for the FFI in test [2] (Conc 10 ppm) and in test [2] (Conc 50 ppm) were 0 and 0.5, respectively. The BI in test [1] (Conc 10 ppm) and in test [1] (Conc 50 ppm) was 2.0 throughout.
In test [2] (Conc 50 ppm), `CCCCCCCCCCCC(=O)OCC` [Material 391] came in with an FFI of 0.3. The compound further displayed a BI in test [1] (Conc 50 ppm) of 2.2.
In the same order, the values of `C=CC(C)=CCC=C(C)C` [Material 524] are 0 and 2.8.
Consider `CCC(O)COC1CCCCC1C(C)(C)C` (centres unmarked) [Material 677], for which the FFI in test [2] (Conc 10 ppm) turned out to be 0; in test [2] (Conc 50 ppm), 1.8. Further, the values for the BI in test [1] (Conc 10 ppm) and in test [1] (Conc 50 ppm) were 2.3 and 2.0, respectively.
In the same order, the values of `CC(CCO)CCc1ccccc1` (centres unmarked) [Material 962] are 0, 0.5, 2.3 and 1.7.
In the case of `CCOC(=O)OC1C(C)CCC(C)C1C` (centres unmarked) [Material 1005], the FFI in test [2] (Conc 50 ppm) worked out at 0.5. For the same compound, the BI in test [1] (Conc 50 ppm) is recorded as 2.6.
Consider `COC(=O)OC1CC/C=C\CCC1` (centres unmarked) [Material 1139], for which the FFI is on record as 0 in test [2] (Conc 10 ppm) and 1.0 in test [2] (Conc 50 ppm). Besides, the values for the BI in test [1] (Conc 10 ppm) and in test [1] (Conc 50 ppm) were 2.0 and 2.7, respectively.
Regarding `C=C1CCC2OC2(C)CCC2C1CC2(C)C` (centres unmarked) [Material 1148], in test [2] (Conc 50 ppm), the FFI is given as 0.5. The BI in test [1] (Conc 50 ppm) came to 2.3.
`CC1(C)C2CCC3(C2)C1C(=O)CCC3(C)C` (centres unmarked) [Material 1149]: the FFI in test [2] (Conc 10 ppm) came out at 0; in test [2] (Conc 50 ppm) it was 0.8. Also, the BI in test [1] (Conc 10 ppm) was found to be 1.5; in test [1] (Conc 50 ppm) it was 2.3.
The compound `CCCCCCCCCCCO` [Undecanol] registered an FFI in test [2] (Conc 50 ppm) of 0.8. Besides, the BI in test [1] (Conc 50 ppm) is 2.3.
Take `CC(C)CC(=O)O` [isovaleric acid, reference compound]: the “BI grade of reference swatch, Ave” value in test [1] (2 μL 0.08% isovaleric acid, all graders (Table 10)) worked out at 1.0.
